Data from patent US9944607B2, “Thiohydantoin derivatives and uses thereof” (Whitehead Institute for Biomedical Research, priority 2012, dated 2018).

Legend:
Candida albicans CaCi-2 = assay: Primary assay: C. albicans CaCi-2 growth inhibition (Alamar Blue); format: cell-based
Candida albicans CaCi-17 = assay: Primary assay: C. albicans CaCi-17 growth inhibition (Alamar Blue); format: cell-based; conditions: Candida albicans, CACI17, Tables 9, 10, 12; AID 623897; read-out: C. albicans CaCi-17 growth inhibition IC50
[1] = tested on: NIH-3T3 mammalian fibroblasts; assay: Counterscreen mammalian cell toxicity assay (Alamar Blue); format: cell-based, murine; conditions: Mus musculus, NIH3T3, Tables 9, 10, 12; AID 602394; read-out: Murine 3T3 fibroblasts growth inhibition (fibroblast toxicity) IC50
Summary of the method: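 Quiescent NIH-3T3 fibroblasts, cultured overnight, exposed to 100 nL pinned compound for 48 h at 37° C, 5% CO2. Alamar Blue added to 1:200 final, 2-3 h further incubation; fluorescence (RFU) read as relative cell growth.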

[2] = Plasma stability, human plasma; format: in vitro ADME; conditions: 37° C., 5 μM
Procedure: (§1) Plasma stability was determined at 37° C. at 5 hours in both human and mouse plasma. Each compound was prepared in duplicate at 5 μM in plasma diluted 50/50 (v/v) with PBS pH 7.4 (0.95% acetonitrile, 0.05% DMSO). Compounds were incubated at 37° C. for 5 hours with a 250-rpm orbital shake with time points taken at 0 hours and 5 hours.

[3] = Plasma stability, mouse plasma; format: in vitro ADME; conditions: 37° C., 5 μM
Procedure: as §1

[4] = Plasma protein binding by equilibrium dialysis, human plasma; format: in vitro ADME; conditions: pH 7.4, 37° C., read-out: Plasma protein binding (% bound), Human (converted)
Procedure: (§2) Plasma protein binding was determined by equilibrium dialysis using the Rapid Equilibrium Dialysis (RED) device (Pierce Biotechnology, Rockford, Ill.) for both human and mouse plasma. Each compound was prepared in duplicate at 5 μM in plasma (0.95% acetonitrile, 0.05% DMSO) and added to one side of the membrane (200 μL) with PBS pH 7.4 added to the other side (350 μL). Compounds were incubated at 37° C. for 5 hours with a 250-rpm orbital shake.

[5] = Plasma protein binding by equilibrium dialysis, mouse plasma; format: in vitro ADME; conditions: pH 7.4, murine plasma, 37° C., read-out: Plasma protein binding (% bound), Murine
Procedure: as §2

mitochondrial function = conditions: FIG. 1 legend, known inhibitors; cited from earlier work

Row | fraction unbound at 5 h, 5 μM [4] | fraction unbound at 5 h, 5 μM [5] | Molecule | IC50 (Candida albicans CaCi-2; Candida albicans, CACI2, Tables 9, 10, 12, AID 623899, read-out: C. albicans CaCi-2 growth inhibition IC50) [µM] | IC50 (Candida albicans CaCi-17) [µM] | IC50 [1] [µM] | Plasma stability (% remaining after 5 hours), Human [2] [%] | Plasma stability (% remaining after 5 hours), Murine [3] [%] | Activity against C. albicans (Candida albicans CaCi-2; CaCi-2, or both test strains (CaCi-2, CaCi-17) where the sentence names none) | Inhibition of mitochondrial function (in words) (mitochondrial function)
1 |  |  | CCOC(=O)N1C(=O)C2(CCCCC2)N(c2ccc(C)cc2)C1=S [CID 3889161] | 0.3 | 8.5 | > 26 | <1.0 | <1.0 |  | 
2 | 0.014 | 0.001 | Cc1ccc(N2C(=S)N(C)C(=O)C23CCCCC3)cc1 [CID 56604835] |  |  |  | 95.7 | 96.6 | no activity | 
3 |  |  | Antimycin |  |  |  |  |  |  | potent, but non-selective
